The data set can be described thus: physchem.

Experimental: "LogP" = Verteilungskoeffizient in einem Zweiphasengemisch aus n-Octanol und Wasser.
Die log P-Daten wurden in Übereinstimmung mit der EEC Direktive 79/831, Anlage V.A8 (Annex V.A8) mittels HPLC (High Performance Liquid Chromatography) auf einer Umkehrphase-Säule (reversed-phase column) (C18) mit folgenden Methoden bestimmt: Temperatur: 40°C; Mobile Phase: 0,1 % bzw. 0,06 %ige wässrige Ameisensäure oder 0,1 % wässriger Phosphorsäure und Acetonitril; linearer Gradient von 10% Acetonitril bis 90% bzw. 95 % Acetonitril. Die Kalibrierung wurde ausgeführt mit Hilfe unverzweigter Alkan-2-one (bestehend aus 3 bis 13 bzw.16 Kohlenstoff-Atomen) mit bekannten IogP-Werten (Bestimmung der IogP-Werte über die Retentionszeiten mittels linearer Interpolation zwischen zwei nachfolgenden Alkanonen).

`COc1ccccc1C=NOCC#Cc1ccccc1[S+](C)[O-]` (stereo not drawn) [Beispiel 1.445] came in with a chromatographic logP of 2.73. Regarding `CCC(=NOCC#Cc1cccc(CC#N)c1)c1ccc(C)cc1` [Beispiel 1.410], the chromatographic logP turned out to be 4.18. The figure for `N#CCc1cccc(C#CCON=Cc2ccc(C3CCCC3)nc2)c1` [Beispiel 5.195] is 4.27; for `CCC(=NOCC#Cc1cccc(C(F)(F)F)c1)c1ccccc1F` [Beispiel 1.416] it is 5.03.

With `CCC(=NOCC#Cc1cccc([S+](C)[O-])c1)c1ccc(C)cc1` (stereo not drawn) [Beispiel 1.421], the chromatographic logP turned out to be 3.46.

Molecule `CCC(=NOCC#Cc1cccc(C(F)(F)F)c1)c1ccc(F)cc1` [Beispiel 1.412] yielded a chromatographic logP of 5.13.

For `CCC(=NOCC#Cc1cccc(CC#N)c1)c1cccc(C)n1` [Beispiel 3.098], the chromatographic logP was 3.5. Turning to `COc1ccc(C=NOCC#Cc2cccc(OC(F)(F)F)c2)cn1` [Beispiel 5.135], the chromatographic logP was determined as 4.26. `COc1ccccc1C=NOCC#Cc1cc(C)c(F)c(SC)c1` [Beispiel 1.440] returned a chromatographic logP of 5.01. As to `COc1ccccc1C=NOCC#Cc1ccc(F)c(SC)c1F` [Beispiel 1.436], the chromatographic logP amounted to 4.48. The figure for `COc1ccc(C=NOCC#Cc2cccc(SC)c2)c(OC)c1` [Beispiel 1.388] is 4.4. The result for `CCOc1ncc(C=NOCC#Cc2cccc(SC)c2)cc1F` [Beispiel 5.199] reads 4.68; that for `COc1ccc(C=NOCC#Cc2cc(C)c(F)c(SC)c2)cn1` [Beispiel 5.142], 4.54; that for `COc1ccc(C=NOCC#Cc2cc(SC)c(F)c(SC)c2)cn1` [Beispiel 5.148], 4.57. For the molecule `C=CCSc1cccc(C#CCON=Cc2ccc(OC)nc2)c1` [Beispiel 5.137], the chromatographic logP is 4.72. In turn, `COc1cc(F)ccc1C=NOCC#Cc1cc(C)c(F)c([S+](C)[O-])c1` (stereo not drawn) [Beispiel 1.443] showed a chromatographic logP of 3.43. In turn, `CC[S+]([O-])c1cc(C#CCON=Cc2ccc(OC)nc2)ccc1C` (stereo not drawn) [Beispiel 5.134] showed a chromatographic logP of 2.51. Take `CSc1cccc(C#CCON=Cc2nccnc2SC)c1` [Beispiel 4.078]: the chromatographic logP was 4.18. In turn, `COc1nc(Cl)cnc1C=NOCC#Cc1cccc([S+](C)[O-])c1` (stereo not drawn) [Beispiel 4.106] showed a chromatographic logP of 2.21.

Molecule `COc1ccc(C=NOCC#Cc2ccc(F)c([S+](C)[O-])c2F)cn1` (stereo not drawn) [Beispiel 5.140] returned a chromatographic logP of 2.17. In turn, `COc1ncc(Cl)nc1C=NOCC#Cc1cccc(SC)c1` [Beispiel 4.092] registered a chromatographic logP of 4.03.

The molecule `COc1ccccc1C=NOCC#Cc1ccc(F)c(SC)c1` [Beispiel 1.053] registered a chromatographic logP of 4.51. The figure for `COc1ccc(C=NOCC#Cc2cccc([S+](C)[O-])c2)c(OC)c1` (stereo not drawn) [Beispiel 1.389] is 2.42; for `COc1ccc(C=NOCC#Cc2cccc(SC)c2)c(OC)n1` [Beispiel 5.183] it is 4.93. The result for `COc1cc(F)ccc1C=NOCC#Cc1ccc(F)c(SC)c1` [Beispiel 1.066] reads 4.58. The figure for `COc1cccc(OC)c1C=NOCC#Cc1cccc([S+](C)[O-])c1` (stereo not drawn) [Beispiel 1.396] is 2.04; for `COc1ccc(C=NOCC#Cc2ccc(F)c(F)c2[S+](C)[O-])cn1` (stereo not drawn) [Beispiel 5.147] it is 2.17. As for `C=CCSc1cccc(C#CCON=Cc2ccc(F)cc2OC)c1` [Beispiel 1.432], the chromatographic logP was determined as 5.24.

For the molecule `CCC(=NOCC#Cc1cccc(OC)c1)c1ccccc1F` [Beispiel 1.415], the chromatographic logP worked out at 4.42. Consider `CC(C)Oc1ccc(C=NOCC#Cc2cccc(CC#N)c2)cn1` [Beispiel 5.178], for which the chromatographic logP is 3.69. The result for `COc1ccc(C=NOCC#Cc2ccc(OC)c(SC)c2)cn1` [Beispiel 5.138] reads 3.83; that for `COc1cc(F)ccc1C=NOCC#Cc1ccccc1SC` [Beispiel 1.442], 4.29; that for `COc1ccccc1C=NOCC#Cc1ccc(C#N)c(SC)c1` [Beispiel 1.394], 3.94. The figure for `COc1nc(Cl)cnc1C=NOCC#Cc1cccc(SC)c1` [Beispiel 4.100] is 4.03; for `CC[S+]([O-])c1cc(C#CCON=Cc2ccc(OC)nc2)ccc1OC` (stereo not drawn) [Beispiel 5.132] it is 2.42.

In turn, `CCSc1cc(C#CCON=Cc2ccc(F)cc2OC)ccc1OC` [Beispiel 1.399] showed a chromatographic logP of 4.53. The result for `CSc1cccc(C#CCON=Cc2ccc(SC)nc2)c1` [Beispiel 5.186] reads 4.22.

For the molecule `COc1ccc(C=NOCC#Cc2ccccc2SC)cn1` [Beispiel 5.143], the chromatographic logP turned out to be 3.79. The figure for `CCC(=NOCC#Cc1cccc(OC)c1)c1ccc(C)cc1` [Beispiel 1.407] is 4.92; for `CCOc1nc(C=NOCC#Cc2cccc([S+](C)[O-])c2)ccc1F` (stereo not drawn) [Beispiel 3.126] it is 2.78. The figure for `COc1ncc(C=NOCC#Cc2cccc(SC)c2)cc1Br` [Beispiel 5.197] is 4.81; for `CCOc1ncccc1C=NOCC#Cc1ccc(C)c([S+](C)[O-])c1` (stereo not drawn) [Beispiel 5.171] it is 2.83. In turn, `COc1cc(F)ccc1C=NOCC#Cc1ccc(OC)c(SC)c1` [Beispiel 1.433] gave a chromatographic logP of 4.32. The figure for `COc1ccccc1C=NOCC#Cc1ccc(OC)c(SC)c1` [Beispiel 1.434] is 4.24; for `COc1ccc(C=NOCC#Cc2cccc(S(C)(=O)=O)c2)cn1` [Beispiel 5.122] it is 2.5; for `CCC(=NOCC#Cc1cccc(C(F)(F)F)c1)c1ccc(C)cc1` [Beispiel 1.408] it is 5.53. The figure for `COc1cc(F)ccc1C=NOCC#Cc1ccc(F)c(F)c1[S+](C)[O-]` (stereo not drawn) [Beispiel 1.448] is 2.78; for `CCSc1cc(C#CCON=Cc2ccc(OC)nc2)ccc1OC` [Beispiel 5.131] it is 4.03. The result for `CSc1cccc(C#CC(C)ON=Cc2cccc(C)n2)c1` (stereo not drawn) [Beispiel 3.085] reads 3.79; that for `CCSc1cc(C#CCON=Cc2ccc(F)cc2OC)ccc1C` [Beispiel 1.425], 5.38. `CS(=O)(=O)c1ccc(C=NOCC#Cc2cccc(CC#N)c2)cn1` [Beispiel 5.200] registered a chromatographic logP of 2.18. The result for `CCC(=NOCC#Cc1cccc(CC#N)c1)c1ccc(F)cc1` [Beispiel 1.414] reads 3.88; that for `COc1cccc(OC)c1C=NOCC#Cc1cccc(CC#N)c1` [Beispiel 1.397], 2.86; that for `COc1ncc(Cl)nc1C=NOCC#Cc1cccc([S+](C)[O-])c1` (stereo not drawn) [Beispiel 4.098], 2.18. The molecule `COc1ccc(C=NOCC#Cc2ccc(F)c(F)c2SC)cn1` [Beispiel 5.146] had a chromatographic logP of 4.11. Molecule `CCC(=NOCC#Cc1cccc([S+](C)[O-])c1)c1ccc(F)cc1` (stereo not drawn) [Beispiel 1.423] registered a chromatographic logP of 3.14.

With `COc1cc(F)ccc1C=NOCC#Cc1ccc(F)c(SC)c1F` [Beispiel 1.435], the chromatographic logP was found to be 4.54. The figure for `CCSc1cc(C#CCON=Cc2ccc(OC)nc2)ccc1C` [Beispiel 5.133] is 4.9; for `COc1ccccc1C=NOCC#Cc1ccc(F)c([S+](C)[O-])c1F` (stereo not drawn) [Beispiel 1.437] it is 2.66; for `CCSc1cccc(C#CCON=Cc2ccccc2OC)c1` [Beispiel 1.056] it is 4.9.

On to `CCC(=NOCC#Cc1cccc([S+](C)[O-])c1)c1ccccc1` (stereo not drawn) [Beispiel 1.420], for which the chromatographic logP came out at 2.93.

With `COc1cc(F)ccc1C=NOCC#Cc1cccc(OC(F)(F)F)c1` [Beispiel 1.429], the chromatographic logP stood at 4.77. The result for `CCC(=NOCC#Cc1cccc(SC)c1)c1ccccc1F` [Beispiel 1.417] reads 4.84. On to `COc1ccc(C=NOCC#Cc2ccc(F)c(SC)c2)cn1` [Beispiel 5.125], for which the chromatographic logP is 2.94. The result for `CCC(=NOCC#Cc1cccc(SC)c1)c1ccc(F)cc1` [Beispiel 1.413] reads 4.97; that for `CCOc1nc(C=NOCC#Cc2cccc(SC)c2)ccc1F` [Beispiel 3.125], 4.76. Molecule `COc1ccccc1C=NOCC#Cc1cccc(F)c1F` [Beispiel 1.439] registered a chromatographic logP of 4.29. The molecule `CCC(=NOCC#Cc1cccc(SC)c1)c1ccccc1` [Beispiel 1.405] came in with a chromatographic logP of 4.84.

Consider `Cc1ccc(C#CCON=Cc2ccccc2Oc2ccc(Cl)cc2)cc1[S+](C)[O-]` (stereo not drawn) [Beispiel 1.379], for which the chromatographic logP is 4.11.

As to `CCC(=NOCC#Cc1cccc(S(C)(=O)=O)c1)c1cccc(C)n1` [Beispiel 3.097], the chromatographic logP is 2.93. Regarding `COc1cc(F)ccc1C=NOCC#Cc1cc(C)c(F)c(SC)c1` [Beispiel 1.441], the chromatographic logP worked out at 5.05. The result for `COc1ccc(C=NOCC#Cc2cccc(CC#N)c2)c(OC)n1` [Beispiel 5.184] reads 3.79. The result for `COc1ccc(C=NOCC#Cc2ccc(C#N)c(SC)c2)cn1` [Beispiel 5.126] reads 3.49. The result for `CCC(=NOCC#Cc1cccc(CC#N)c1)c1ccccc1` [Beispiel 1.406] reads 3.87; that for `CCSc1cccc(C#CCON=Cc2ccc(F)cc2OC)c1` [Beispiel 1.069], 4.9.

In turn, `COc1ncc(C=NOCC#Cc2cc(SC)c(F)c(SC)c2)cc1F` [Beispiel 5.198] gave a chromatographic logP of 4.65.

Molecule `COc1ccc(C=NOCC#Cc2ccc(F)c(SC)c2F)cn1` [Beispiel 5.139] displayed a chromatographic logP of 4.1. The figure for `COc1nccnc1C=NOCC#Cc1cccc(S(C)(=O)=O)c1` [Beispiel 4.091] is 1.99. Regarding `C[S+]([O-])c1cccc(C#CCON=Cc2cc(C(F)(F)F)c(Cl)cn2)c1` (stereo not drawn) [Beispiel 3.121], the chromatographic logP stood at 2.96. The result for `COc1ncccc1C=NOCC#Cc1ccc(C)c([S+](C)[O-])c1` (stereo not drawn) [Beispiel 5.168] reads 2.42; that for `CC[S+]([O-])c1cc(C#CCON=Cc2ccc(F)cc2OC)ccc1OC` (stereo not drawn) [Beispiel 1.402], 3.19.

By chromatographic logP is commonly meant a lipophilicity value derived from retention on a column. Read a low chromatographic logP as lower lipophilicity.

These data come from EP2017264A1, “Substituted phenyl propargyl compounds, method for their manufacture and their use as herbicides and plant growth regulators” (BAYER CROPSCIENCE AG, priority 2007, dated 2009).
